In data set [1] the target is BACE-1 (Homo sapiens (Human), UniProt P56817). In words: cell-free BACE enzyme assay with P5-P5′ substrate. Type of data set: biochemical. The method, then:
For the assay, 4 μL of assay buffer was added to each well, followed by 2 μL of BACE-1 diluted in assay buffer to 7.5 ng/μL. Then, 2 μL of inhibitor, at concentrations along an 11 pt. two-fold dilution series starting at 0.5 μM, were added to appropriate wells and incubated for 30 minutes at room temperature. Afterwards, 2 μL of P5-P5′ BACE-1 substrate, diluted to 50 μM in assay buffer, were added to each well, after which the signal generated was read every 30 minutes at 25° C. for 2 hr.

Data set [2] in a line: PAMPA. Type of data set: in vitro ADME.
The mark [3] stands for this setting: cell-free, several replicate values per cell, some flagged 's' (flag not defined), read-out: BACE1 IC50.

pIC50: −log10 of the molar value. “And” between values parts separate entries of the source, which are not always exact repeats. Equal entries are not always repeated. Where two headings read alike, the source gives them in different places.

Chain of BACE-1 (P56817 46-501): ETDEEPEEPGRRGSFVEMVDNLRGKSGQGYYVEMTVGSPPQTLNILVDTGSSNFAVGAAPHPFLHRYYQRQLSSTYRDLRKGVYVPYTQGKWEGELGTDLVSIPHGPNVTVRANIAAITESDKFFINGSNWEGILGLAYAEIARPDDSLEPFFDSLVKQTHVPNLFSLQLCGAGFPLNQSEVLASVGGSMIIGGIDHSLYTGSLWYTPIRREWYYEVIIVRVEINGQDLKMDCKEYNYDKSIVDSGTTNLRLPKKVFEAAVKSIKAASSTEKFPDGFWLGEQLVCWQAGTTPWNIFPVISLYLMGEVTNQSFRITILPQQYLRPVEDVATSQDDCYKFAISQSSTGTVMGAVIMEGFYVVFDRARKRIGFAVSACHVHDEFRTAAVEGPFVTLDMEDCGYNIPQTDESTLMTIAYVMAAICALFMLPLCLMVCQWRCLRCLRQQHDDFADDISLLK

On to `CN1C(=O)C(c2cc(-c3cncc(F)c3)ccc2F)(C2CC2)N=C1N` (stereo not drawn) [FAH-126], for which, in data set [1] (cell-free, several replicate values per cell, some flagged 's' (flag not defined)), the “BACE1 IC50 (μM)” value was “inactive”.

As a reminder, the pIC50 is the IC50 on a negative log10 scale, so that one unit is a factor of ten. `Cc1cc(C2(c3cccc(F)c3)N=C(N)N(C)C2=S)ccc1OC(F)F` (stereo not drawn) [FAH-31] displayed a PAMPA in data set [2] of 3.07. The pIC50 in data set [1] (setting [3]) is 5.36 and 5.40.

Turning to `COCc1cc(C2(c3ccc(OC(F)F)c(C)c3)N=C(N)N(C)C2=O)ccn1` (stereo not drawn) [FAH-53], in data set [2], the PAMPA came to 0.26.

Consider `CN1C(=O)C(c2cccc(-c3cncnc3)c2)(c2ccc3c(c2)OCCO3)N=C1N` (stereo not drawn) [FAH-135], for which the PAMPA in data set [2] was found to be 0.26. Further, the pIC50 in data set [1] (setting [3]) was 6.68.

As for `Cc1cc(C2(C3CCCC(c4ncco4)C3)N=C(N)N(C)C2=O)ccc1OC(F)F` (stereo not drawn) [FAH-69], the PAMPA in data set [2] amounted to 0.92. Besides, the pIC50 in data set [1] (setting [3]) was 6.96 and 6.68 and 6.92 and 6.37.

In turn, `CC#Cc1cncc(-c2cccc(C3(C(C)C)N=C(N)N(C)C3=O)c2)n1` (stereo not drawn) [FAH-101] gave a PAMPA in data set [2] of 1.71.

Turning to `CN1C(=O)C(c2cnc(OC(F)F)nc2)(c2cccc(F)c2)N=C1N` (stereo not drawn) [FAH-83], the PAMPA in data set [2] was 0.51 and 0.53. The pIC50 in data set [1] (setting [3]) was 5.54 and 5.63 and 5.04.

As for `Cc1cc(C2(c3cccc(-c4ccnnc4)c3)N=C(N)N(C)C2=O)ccc1OC(F)F` (stereo not drawn) [FAH-72], the PAMPA in data set [2] is reported as 0.37. Moreover, the pIC50 in data set [1] (setting [3]) was 6.85 and 7.00 and 7.31 and 7.06 and 7.03.

For `CN1C(=O)C(c2cccc(-c3cncnc3)c2)(c2ccc3c(c2)OC(F)(F)O3)N=C1N` (stereo not drawn) [FAH-137], in data set [2], the PAMPA is given as 0.59. For the same molecule, the negative-log IC50 (pIC50) in data set [1] (setting [3]) is 6.34.

Regarding `Cc1ncc(-c2cccc(C3(C4CC4)N=C(N)N(C)C3=O)c2)cn1` (stereo not drawn) [FAH-107], in data set [2], the PAMPA is reported as 0.40. The pIC50 in data set [1] (setting [3]) is 5.05 and 5.31 and 5.16.

`Cc1cc(C2(C3CCN(C)CC3)N=C(N)N(C)C2=O)ccc1OC(F)F` (stereo not drawn) [FAH-67] registered a PAMPA in data set [2] of 0.20.

Consider `Cc1cc(C2(c3cccc(-c4ccco4)c3)N=C(N)N(C)C2=O)ccc1OC(F)F` (stereo not drawn) [FAH-82], for which the pIC50 in data set [1] (setting [3]) is 6.11 and 6.35 and 5.62.

Consider `CN1C(=O)C(c2ccc(OCF)cc2)(c2cccc(-c3cncnc3)c2)N=C1N` (stereo not drawn) [FAH-84], for which, in data set [2], the PAMPA turned out to be 0.30.

`Cc1cc(C2(c3cocn3)N=C(N)N(C)C2=O)ccc1OC(F)F` (stereo not drawn) [FAH-38] registered a PAMPA in data set [2] of 3.46. In addition, the pIC50 in data set [1] (setting [3]) is < 5.30.

`CNCCc1cccc(C2(c3ccc(OC(F)F)c(C)c3)N=C(N)N(C)C2=O)c1` (stereo not drawn) [FAH-63]: the PAMPA in data set [2] is on record as 0.38.

In data set [2], `Cc1cc(C2(c3ccc(OC(F)F)c(C)c3)N=C(N)N(C)C2=O)ccn1` (stereo not drawn) [FAH-47] displayed a PAMPA of 0.46. Also, in data set [1] (setting [3]), the pIC50 is 5.52.

For `CN1C(=O)C(C)(c2cccc(-c3cncnc3)c2)N=C1N` (stereo not drawn) [FAH-100], in data set [2], the PAMPA amounted to 0.27. The pIC50 in data set [1] (setting [3]) is 5.64 and 5.31.

For `Cc1cc(C2(c3cccc(-c4cncc(C5CC5)c4)c3)N=C(N)N(C)C2=O)ccc1OC(F)F` (stereo not drawn) [FAH-111], the PAMPA result in data set [2] was “solubility issue”. For the same molecule, the pIC50 in data set [1] (setting [3]) was 7.10 and 6.96.

Regarding `CC1CCN(c2cccc(C3(c4ccc(OC(F)F)cc4)N=C(N)N(C)C3=O)c2)C1` (stereo not drawn) [FAH-88], the PAMPA in data set [2] is on record as 4.53 2-peaks. In data set [1] (setting [3]), the pIC50 is 6.08 and 6.22 and 5.67.

For `CCCc1cncc(-c2cccc(C3(C(C)C)N=C(N)N(C)C3=O)c2)n1` (stereo not drawn) [FAH-106], in data set [2], the PAMPA was 2.36. For the same molecule, the negative-log IC50 (pIC50) in data set [1] (setting [3]) was 5.66 and 5.50.

`CN1C(=O)C(c2cccc(-c3cncnc3)c2)(c2ccc3c(c2)OCO3)N=C1N` (stereo not drawn) [FAH-136]: in data set [2], the PAMPA was determined as 0.30. Besides, the pIC50 in data set [1] (setting [3]) was 6.60.

For the molecule `CC#Cc1cncc(-c2cc(C3(c4ccnc(C(F)F)c4)N=C(N)N(C)C3=O)ccc2F)c1` (stereo not drawn) [FAH-152], in data set [2], the PAMPA is 0.46. Also, in data set [1] (setting [3]), the pIC50 was 7.70.

Consider `COCc1cccc(C2(c3ccc(OC(F)F)c(C)c3)N=C(N)N(C)C2=O)c1` (stereo not drawn) [FAH-44], for which, in data set [2], the PAMPA amounted to 0.91.

Turning to `Cc1cc(C2(c3cccc(-c4ccncn4)c3)N=C(N)N(C)C2=O)ccc1OC(F)F` (stereo not drawn) [FAH-87], the PAMPA in data set [2] is 0.58. The pIC50 in data set [1] (setting [3]) was 6.52 and 6.47 and 6.38 and 6.54.

The molecule `CN1C(=O)C(c2cccc(-c3cncnc3)c2)(c2ccc3occc3c2)N=C1N` (stereo not drawn) [FAH-116] came in with a PAMPA in data set [2] of 0.52. Besides, in data set [1] (setting [3]), the pIC50 was 6.57 and 6.59.

On to `Cc1cc(C2(c3cncnc3)N=C(N)N(C)C2=O)ccc1OC(F)F` (stereo not drawn) [FAH-33], for which the PAMPA in data set [2] is listed as 0.24. Moreover, the pIC50 in data set [1] (setting [3]) was < 5.30.

On to `Cc1cc(C2(c3cccc(-c4cnc(N)nc4)c3)N=C(N)N(C)C2=O)ccc1OC(F)F` (stereo not drawn) [FAH-110], for which, in data set [2], the PAMPA is reported as 0.46. In addition, the negative logarithm of the IC50 (pIC50) in data set [1] (cell-free BACE assay) is 7.37; in data set [1] (setting [3]) it was 7.33 and 7.42.

In the case of `COc1cc(C2(c3ccc(OC(F)F)c(C)c3)N=C(N)N(C)C2=O)ccn1` (stereo not drawn) [FAH-48], in data set [2], the PAMPA came to 0.68. Also, the pIC50 in data set [1] (setting [3]) is 5.36.

The molecule `CN1C(=O)C(c2ccc(OC(F)F)cc2)(c2cccc(-c3cncnc3)c2)N=C1N` (stereo not drawn) [FAH-74] yielded a PAMPA in data set [2] of 0.36. Moreover, the pIC50 in data set [1] (cell-free BACE assay) is 7.89; in data set [1] (setting [3]), 8.38 and 8.60 and 8.24 and 8.12 and 7.82 and 7.64.

With `Cc1cc(C2(C3CCCCC3)N=C(N)N(C)C2=O)ccc1OC(F)F` (stereo not drawn) [FAH-59], in data set [2], the PAMPA amounted to 4.43. Also, in data set [1] (setting [3]), the pIC50 is 6.14.

As to `CNCc1cccc(C2(c3ccc(OC(F)F)c(C)c3)N=C(N)N(C)C2=O)c1` (stereo not drawn) [FAH-62], the PAMPA in data set [2] is 0.35.

The molecule `Cc1cc(C2(c3cccc(F)c3)N=C(N)N(Cc3ccccc3)C2=O)ccc1OC(F)F` (stereo not drawn) [FAH-42] came in with a PAMPA in data set [2] of 2.29.

Take `Cc1cc(C2(C3CCCC(c4cncnc4)C3)N=C(N)N(C)C2=O)ccc1OC(F)F` (stereo not drawn) [FAH-85]: the PAMPA in data set [2] was 0.51 2 peaks. For the same molecule, in data set [1] (setting [3]), the pIC50 was 6.66.

In data set [2], `Cc1cc(C2(c3cc(-c4cncnc4)ccc3F)N=C(N)N(C)C2=O)ccc1OC(F)F` (stereo not drawn) [FAH-156] yielded a PAMPA of 0.25. For the same molecule, in data set [1] (setting [3]), the pIC50 was 6.70.

In data set [2], `Cc1cc(C2(c3cccc(C4CNC4)c3)N=C(N)N(C)C2=O)ccc1OC(F)F` (stereo not drawn) [FAH-64] displayed a PAMPA of 0.35.

For the molecule `Cc1cccc(C2(c3cccc(-c4cccnc4)c3)N=C(N)N(C)C2=O)c1` (stereo not drawn) [FAH-75], the PAMPA in data set [2] came out at 0.62. Besides, the pIC50 in data set [1] (setting [3]) is 6.68 and 6.62 and 6.82 and 6.38.

`Cc1cc(C2(c3ccnc(F)c3)N=C(N)N(C)C2=O)ccc1OC(F)F` (stereo not drawn) [FAH-46] gave a PAMPA in data set [2] of 0.65. Further, the pIC50 in data set [1] (setting [3]) was 5.52.

In data set [2], `Cc1cc(C2(c3cccc(NC(=O)N(C)C)c3)N=C(N)N(C)C2=O)ccc1OC(F)F` (stereo not drawn) [FAH-99] came in with a PAMPA of 0.38. For the same molecule, the negative-log IC50 (pIC50) in data set [1] (setting [3]) is 6.82 and 6.68.

The molecule `Cc1cc(C2(c3cccc(-c4ccccc4)c3)N=C(N)N(C)C2=O)ccc1OC(F)F` (stereo not drawn) [FAH-73] displayed a PAMPA in data set [2] of 5.11. In addition, in data set [1] (setting [3]), the pIC50 was 6.28 and 6.16.

For the molecule `CCCC1CC(C2(c3ccc(OC(F)F)c(C)c3)N=C(N)N(C)C2=O)CCN1C` (stereo not drawn) [FAH-68], the PAMPA in data set [2] was 0.20. Further, the pIC50 in data set [1] (setting [3]) is 4.79.

In data set [2], `Cc1cc(C2(c3cncc(F)c3)N=C(N)N(C)C2=O)ccc1OC(F)F` (stereo not drawn) [FAH-37] displayed a PAMPA of 0.54. Besides, the pIC50 in data set [1] (setting [3]) was 5.71.

In data set [2], `CN1C(=O)C(c2cccc(-c3cncnc3)c2)(c2ccc3c(c2)CCO3)N=C1N` (stereo not drawn) [FAH-117] came in with a PAMPA of 0.32. Further, in data set [1] (setting [3]), the pIC50 is 5.86 and 6.39.

The values above are taken from patent US20210101879A1, “AMYLOID PROTEIN-SELECTIVE BACE INHIBITORS (ASBIs) FOR ALZHEIMER?S DISEASE” (The Regents of the University of California, priority 2018, published 2021).
